The source of these data is article PMC7035640 (Parasites & Vectors, 2020).

Structures are written as SMILES. Read-outs that look alike come from different tables or passages of the source.

The subject of data set [1] is L. donovani promastigotes. Put plainly: Transmission electron microscopy of promastigotes. It counts as cell-based, Leishmania donovani. To be noted: 48 h; CsA 16 μM, DHCsA-d 12 μM, SSG 20 μM. The source says: (§1) Next, the cells were dehydrated in acetone and embedded in epoxy resin. Stained with lead citrate and observed under a Hitachi HT7700 transmission electron microscope.

Data set [2] has as its system L. donovani promastigotes. In words: Promastigote inhibition, flow cytometry (annexin V-FITC/PI). It counts as cell-based, Leishmania donovani. The note with it: mean ± SD of three independent experiments. The procedure: (§2) Leishmania donovani strain MHOM/CN/IN/80/DD8 was used in this study. Leishmania promastigotes in the logarithmic phase were cultured at 28 °C in M199 medium at pH 7.4 (Sigma-Aldrich, Saint Louis, MO, USA), supplemented with 10% fetal bovine serum (Hyclone, Logan, UT, USA) and antibiotics (Pen-Strep, 100 U/ml penicillin-100 […] streptomycin sulphate).
Inhibition rate (%) was calculated as follows: Inhibition rate (%) = 100% − [(No. of live parasites in treated sample/No. of live parasites in untreated control) × 100%].
(§3) RAW 264.7 cells (5.0 × 10^5 cells/per well) were plated on round glass coverslips in 24-well plates and allowed to adhere to the slides for 24 h at 37 °C, 5% CO2, in PRMI 1640 medium (Gibco, Franklin, TN, USA) supplemented with 10% FBS (Gibco). Adherent macrophages were infected with L. donovani promastigotes, at a macrophages-to-parasite ratio of 1:20 for 6 h at 37 °C, 5% CO2. Next, the non-infected parasites were removed by washing three times with PBS, and the infected macrophages were incubated in 37 °C in 5% CO2 with PRMI 1640 medium and 10% FBS without drugs for 24 h. […] At 24 and 48 h, the glass coverslips were fixed in methanol (Solarbio, Beijing, China) and stained with Wright’s stain (Solarbio). The numbers of parasites were determined using light microscopy by counting at least 200 cells per slide. The results are expressed as means of three independent experiments.
(§4) All experiments were carried out in triplicates and repeated at least three times and the figures shown are representative of these experiments. IC50 were calculated according to a nonlinear regression using a log inhibitor-versus response equation with 95% confidence intervals in the GraphPad Prism 6.0 software. The data were analyzed using Student’s t-test for comparison of two groups and data values were expressed as the mean ± standard deviation (SD). Significant differences were determined and designated with asterisks as follows: *P < 0.05; **P < 0.01; ***P < 0.001 and ****P < 0.0001.
In general terms: A flow cytometer gives signals particle by particle.

Data set [3] concerns murine macrophages (RAW 264.7). In words: Cytotoxicity assessment, Cell Counting Kit-8. It counts as cell-based, mouse. The procedure:
Murine macrophages were cultivated in a 96-well plate using PRIM 1640 medium containing 10% FBS and maintained at 37 °C, 5% CO2, for 24 h. […] The cytotoxicity was measured at 24 and 48 h following a standard protocol.
(In general: Tetrazolium dyes change colour on reduction, which living cells bring about.)

Data set [4] has as its system L. donovani cyclophilin A (LdCyPA). Put plainly: Western blotting of LdCyPA expression in intracellular amastigotes. It counts as cell-based, Leishmania donovani. The note with it: 48 h; CsA 10 μM, DHCsA-d 5 μM, SSG 9 μM; normalized to α-tubulin. As to the method:
(§5) Polyclonal antibodies against LdCyPA were obtained to monitor protein expression. Representative peptides of LdCyPA were analyzed through two predictors for B cells, BEPIPRED and BCPRED12. […] Polyclonal antiserum was produced in New Zealand white rabbits. The rabbits were immunized with Freund’s adjuvant (Sigma-Aldrich), containing 1500 μg of LdCyPA peptide, on days 0, 15 and 30. The rabbits received three subcutaneous injections, the first in complete Freund’s adjuvant and later two in incomplete Freund’s adjuvant. Serum was obtained and antibody titers were estimated by ELISA on 25 and 42 days after the last injection.
(§6) These cells were then lysed with a protein lysis buffer supplemented with protease and phosphatase inhibitors and the protein concentration was determined by the BCA Kit (Beyotime). The extracted proteins were denatured for 5 min at 100 °C after adding appropriate amounts of loading buffer. Approximately 40 to 50 μg of proteins was loaded in each lane of a 12% polyacrylamide gel (Beyotime). […] The PVDF membranes were visualized with an enhanced chemiluminescence western blotting detection kit (Beyotime) and the protein bands were analyzed by densitometric studies using ImageJ software.

Data set [5] relates to intracellular amastigotes of L. donovani. Put plainly: Transmission electron microscopy of intracellular amastigotes in RAW 264.7 macrophages. The note with it: 48 h, DHCsA-d 5 μM; for Ultrastructure of intracellular amastigotes (mitochondria): CsA 10 μM, SSG 9 μM. It is filed as cell-based, Leishmania donovani.
Text: as §1

Data set [6] relates to L. donovani cyclophilin A (LdCyPA). In words: Western blotting of LdCyPA expression in promastigotes. It is filed as cell-based, Leishmania donovani. To be noted: 48 h; CsA 16 μM, DHCsA-d 12 μM, SSG 20 μM; normalized to α-tubulin. The procedure: as §5, §6
(In western blotting, separated proteins are transferred to a membrane and probed.)

Data set [7] has as its system L. donovani infected macrophages (RAW 264.7). In words: Cytokine quantification by ELISA in supernatants of L. donovani-infected RAW 264.7 macrophages. It counts as cell-based, mouse. To be noted: 24 h, 48 h and 72 h; CsA 10 μM, DHCsA-d 5 μM, SSG 9 μM. The procedure:
(§7) Mouse RAW 264.7 macrophages (5.0 × 10^5 cells/per well), adhered for 24 h at 37 °C, 5% CO2, in PRMI 1640 medium supplemented with 10% FBS were infected with promastigotes at a macrophages-to-parasite ratio of 1:20 for 6 h at 37 °C, 5% CO2, and subsequently the non-infected parasites were removed by washing three times with PBS. Infected macrophages were incubated in PRMI 1640 medium and 10% FBS at 37 °C, 5% CO2, without drugs for 24 h. […] The cells were further incubated for 3 days, and the medium supernatants were retrieved at 24, 48 and 72 h. Subsequently, the cytokines IL-12, IL-10, IL-4, IFN-γ and TNF-α were measured utilizing the BD OpitELA ELISA Kit (BD). NO and H2O2 concentrations in the supernatants were detected by nitric oxide and hydrogen peroxide assay kits (Beyotime), respectively.

Data set [8] has the same test system. In words: NO and H2O2 quantification in supernatants of L. donovani-infected RAW 264.7 macrophages. The note with it: 24 h, 48 h and 72 h; CsA 10 μM, DHCsA-d 5 μM, SSG 9 μM. It is filed as cell-based, mouse. As to the method: as §7
The next data set deals with cyclophilin A (CyPA). Put plainly: Western blotting of CyPA expression in RAW 264.7 cells. The note with it: 48 h; CsA 10 μM, DHCsA-d 5 μM, SSG 9 μM; normalized to α-tubulin. It is filed as cell-based, mouse. The procedure: These cells were then lysed with a protein lysis buffer supplemented with protease and phosphatase inhibitors and the protein concentration was determined by the BCA Kit (Beyotime). The extracted proteins were denatured for 5 min at 100 °C after adding appropriate amounts of loading buffer. Approximately 40 to 50 μg of proteins was loaded in each lane of a 12% polyacrylamide gel (Beyotime). Proteins were separated at 120 V until the dye front reached the bottom of the gel, followed by transfer of the gels to polyvinylidene fluoride (PVDF) membranes (EMD, MA, USA) in transfer buffer (25 mM Tris-HCl, 192 mM glycine, 20% methanol, 0.02% SDS, pH 8.3) and run at 200 mA for 60 min. The membranes were then soaked in a blocking buffer (1 × PBS, 0.1% Tween 20) and supplemented with 1% bovine serum albumin (Sigma-Aldrich) for 2 h, before incubating overnight at 4 °C individually with LdCyPA polyclonal antibody, CyPA antibody (Affinity, Dublin, OH, USA) and α-tubulin antibody (Affinity) at appropriate dilutions. All the primary antibodies were used at a 1:4000 dilution and horseradish peroxidase-conjugated anti-rabbit immunoglobulin secondary antibodies (Affinity) were used at a 1:5000 dilution. The PVDF membranes were visualized with an enhanced chemiluminescence western blotting detection kit (Beyotime) and the protein bands were analyzed by densitometric studies using ImageJ software.

In data set [9] the test system is intracellular amastigotes of Leishmania donovani. Put plainly: Intracellular amastigote inhibition in infected RAW 264.7 macrophages, Wright's stain and microscopy. It is filed as cell-based. The note with it: for Number of intracellular amastigotes compared to untreated (Wright's staining): CsA 10 μM, DHCsA-d 5 μM, SSG 9 μM; for IC50: intracellular amastigotes in RAW 264.7, mean ± SD. The procedure:
as §2
as §3, with “experiments. The 50% inhibitory concentration (IC50) was calculated for promastigotes and intracellular amastigotes by fitting the values to a non-linear curve analysis.” for “experiments.”
as §4

The mark [10] stands for this setting: 24 h, mean ± SD, read-out: Cytotoxicity (RAW 264.7) CC50.
Where [11] appears, read: 48 h, mean ± SD, read-out: Cytotoxicity (RAW 264.7) CC50.

Usually IC50 stands for the midpoint of a concentration-inhibition curve. High values mean weaker potency in that assay, low ones greater potency in that assay. Usually CC50 stands for the concentration that lowers cell viability or growth by half. Consider `O.O.O.O.O.O.O.O.O.O=C([O-])[C@@H]1[O][Sb](=[O])([O][Sb]2(=[O])[O][C@H]([C@H](O)CO)[C@H](O)[C@H](C(=O)[O-])[O]2)[O][C@H]([C@H](O)CO)[C@@H]1O.[Na+].[Na+].[Na+]` (stereo partly drawn) [SSG, Sodium stibogluconate], for which, in data set [1], the “Ultrastructure of promastigote mitochondria” value is “completely disorganized”. In addition, half-maximal inhibition in data set [2] (24 h) (IC50) was put at 32.3 ± 1.6 µM. Inhibition in [2] (48 h) was half-maximal at 20.2 ± 1.4 µM (IC50). For the same molecule, the CC50 in [3] (setting [10]) is over 120 µM. Moreover, in [3] (setting [11]), the cytotoxic concentration (CC50) is over 120 µM. Further, in data set [3] (RAW 264.7, time not given in the sentence, read-out: CC50), the CC50 was over 120 µM. Besides, the “Expression of LdCyPA in intracellular amastigotes vs untreated” value in data set [4] is recorded as “no significant changes”. Further, the “Ultrastructure of intracellular amastigotes (mitochondria)” value in [5] is listed as “disintegrated”. Further, the “Expression of LdCyPA in promastigotes vs untreated” value in data set [6] is “no significant changes”. For the same molecule, in [7], the “IFN-γ level vs untreated infected cells” value is listed as “significant increases”, the “IL-4 level vs untreated infected cells” value is reported as “significantly decreased”, the “IL-10 level vs untreated infected cells” value is “significantly decreased” and the “IL-12 level vs untreated infected cells” value was “significant increases”. In addition, in data set [7], the “TNF-α level vs untreated infected cells” value is “significant increases”. Further, in data set [8], the “H2O2 production vs untreated infected cells” value is “significantly decreased” and the “NO production vs untreated infected cells” value is “significantly decreased”. Further, in the data set with cyclophilin A (CyPA), the “Expression of CyPA in RAW 264.7 cells vs untreated” value is recorded as “no significant changes”. Also, in data set [9] (24 h), the “Number of intracellular amastigotes compared to untreated (Wright's staining)” value is “reduced” and the midpoint of inhibition, the IC50, lay at 9.51 ± 0.5 µM. For the same molecule, in data set [9] (48 h), the “Number of intracellular amastigotes compared to untreated (Wright's staining)” value is on record as “basically absent” and the IC50 worked out at 8.27 ± 0.1 µM.

As to `CCCC[C@@H](C)[C@@H](O)[C@H]1C(=O)N[C@@H](CC)C(=O)N(C)CC(=O)N(C)[C@@H](CC(C)C)C(=O)N[C@@H](C(C)C)C(=O)N(C)[C@@H](CC(C)C)C(=O)N[C@@H](C)C(=O)N[C@H](C)C(=O)N(C)[C@@H](CC(C)C)C(=O)N(C)[C@@H](CC(C)C)C(=O)N(C)[C@@H](C(C)C)C(=O)N1C` [DHCsA-d, dihydrocyclosporin A], the “Ultrastructure of promastigote mitochondria” value in data set [1] is recorded as “completely disorganized”. The molecule also yielded a concentration for half-maximal inhibition (IC50) in data set [2] (24 h) of 21.2 ± 1.2 µM. 12.1 ± 1.1 µM corresponded to half-maximal inhibition in data set [2] (48 h) (IC50). Further, in [3] (setting [10]), the CC50 was determined as 7.98 ± 0.4 µM. In addition, the CC50 in data set [3] (setting [11]) stood at 6.65 ± 0.7 µM. For the same molecule, the “Expression of LdCyPA in intracellular amastigotes vs untreated” value in data set [4] is “no significant changes”. In addition, in data set [5], the “Ultrastructure of intracellular amastigotes (mitochondria)” value is given as “disintegrated” and the “Share of intracellular amastigotes degraded in parasitophorous vacuoles” value is “Almost half”. Also, the “Expression of LdCyPA in promastigotes vs untreated” value in [6] is on record as “no significant changes”. Also, in data set [7], the “IFN-γ level vs untreated infected cells” value is recorded as “significant increases”, the “IL-4 level vs untreated infected cells” value is “significantly decreased”, the “IL-10 level vs untreated infected cells” value is reported as “significantly decreased” and the “IL-12 level vs untreated infected cells” value is given as “significant increases”. Moreover, the “TNF-α level vs untreated infected cells” value in data set [7] was “significant increases”. For the same molecule, in data set [8], the “H2O2 production vs untreated infected cells” value is given as “significantly decreased” and the “NO production vs untreated infected cells” value is listed as “significantly decreased”. Further, the “Expression of CyPA in RAW 264.7 cells vs untreated” value with cyclophilin A (CyPA) is reported as “no significant changes”. Moreover, in data set [9] (24 h), the “Number of intracellular amastigotes compared to untreated (Wright's staining)” value was “reduced” and 5.23 ± 2.1 µM corresponded to half-maximal inhibition (IC50). For the same molecule, in data set [9] (48 h), the “Number of intracellular amastigotes compared to untreated (Wright's staining)” value is reported as “basically absent” and the IC50 came out at 4.84 ± 0.4 µM.
